Blank lines part the entries; values can stand above or below the compound they belong to.
Legend:
Assay in all cases: radiometric filter-binding kinase assay
[1] = target: PHKG1 (human) (UniProt Q16816)
[2] = target: PRKACA (human) (UniProt P17612)
[3] = target: CaMK1 (human) (UniProt Q14012)
[4] = target: EPHB3 (human) (UniProt P54753)
[5] = system: AKT2 (human), P31751 [S474D]
[6] = target: DYRK1A (human) (UniProt Q13627)
[7] = system: PRKAA1 or PRKAA2 (rat); settings: accession and sequence are those of the human protein
[8] = target: SRC (human) (UniProt P12931)
[9] = target: MST4 (human) (UniProt Q9P289)
[10] = target: PRKCZ (human) (UniProt Q05513)
[11] = target: PIM2 (human) (UniProt Q9P1W9)
[12] = target: MAPK13 (human) (UniProt O15264)
[13] = target: CSNK2A1 (human) (UniProt P68400)
[14] = target: INSR (human) (UniProt P06213)
[15] = target: CHEK1 (human) (UniProt O14757)
[16] = target: PAK4 (human) (UniProt O96013)
[17] = target: SYK (human) (UniProt P43405)
[18] = target: INSRR (human) (UniProt P14616)
[19] = target: YES1 (human) (UniProt P07947)
[20] = target: CAMKK2 (human) (UniProt Q96RR4)
[21] = target: MAP2K1 (human) (UniProt Q02750)
[22] = target: IGF1R (human) (UniProt P08069)
[23] = system: LCK (mouse); settings: accession and sequence are those of the human protein
[24] = target: AURKB (human) (UniProt Q96GD4)
[25] = target: MARK3 (human) (UniProt P27448)
[26] = target: MKNK1 (human) (UniProt Q9BUB5)
[27] = target: CDK2 CCNA2 (human) (UniProt P20248+P24941)

Sequence of PHKG1 (human) (Q16816 whole entry, looked up): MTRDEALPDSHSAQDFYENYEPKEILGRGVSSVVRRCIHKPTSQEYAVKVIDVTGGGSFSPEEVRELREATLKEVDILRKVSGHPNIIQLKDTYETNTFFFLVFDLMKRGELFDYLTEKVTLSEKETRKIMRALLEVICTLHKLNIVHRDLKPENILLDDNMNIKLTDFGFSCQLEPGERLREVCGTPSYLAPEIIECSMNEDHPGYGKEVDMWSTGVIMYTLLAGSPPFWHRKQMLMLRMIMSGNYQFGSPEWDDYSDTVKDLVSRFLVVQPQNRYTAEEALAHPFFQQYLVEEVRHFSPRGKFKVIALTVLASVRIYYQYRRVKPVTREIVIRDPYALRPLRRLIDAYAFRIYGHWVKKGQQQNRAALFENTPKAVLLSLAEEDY
Sequence of CaMK1 (human) (Q14012 whole entry, looked up): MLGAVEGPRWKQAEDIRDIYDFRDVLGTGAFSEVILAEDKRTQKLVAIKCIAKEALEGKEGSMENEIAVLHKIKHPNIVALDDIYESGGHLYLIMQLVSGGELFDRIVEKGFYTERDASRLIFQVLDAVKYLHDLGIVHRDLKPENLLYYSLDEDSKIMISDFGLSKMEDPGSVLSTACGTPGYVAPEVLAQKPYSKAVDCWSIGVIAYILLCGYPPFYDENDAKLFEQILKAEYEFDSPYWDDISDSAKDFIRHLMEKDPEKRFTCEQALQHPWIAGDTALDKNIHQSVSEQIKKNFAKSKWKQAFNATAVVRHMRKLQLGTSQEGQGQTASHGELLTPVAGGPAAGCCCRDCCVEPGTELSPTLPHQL
Sequence of MARK3 (human) (P27448 whole entry, looked up): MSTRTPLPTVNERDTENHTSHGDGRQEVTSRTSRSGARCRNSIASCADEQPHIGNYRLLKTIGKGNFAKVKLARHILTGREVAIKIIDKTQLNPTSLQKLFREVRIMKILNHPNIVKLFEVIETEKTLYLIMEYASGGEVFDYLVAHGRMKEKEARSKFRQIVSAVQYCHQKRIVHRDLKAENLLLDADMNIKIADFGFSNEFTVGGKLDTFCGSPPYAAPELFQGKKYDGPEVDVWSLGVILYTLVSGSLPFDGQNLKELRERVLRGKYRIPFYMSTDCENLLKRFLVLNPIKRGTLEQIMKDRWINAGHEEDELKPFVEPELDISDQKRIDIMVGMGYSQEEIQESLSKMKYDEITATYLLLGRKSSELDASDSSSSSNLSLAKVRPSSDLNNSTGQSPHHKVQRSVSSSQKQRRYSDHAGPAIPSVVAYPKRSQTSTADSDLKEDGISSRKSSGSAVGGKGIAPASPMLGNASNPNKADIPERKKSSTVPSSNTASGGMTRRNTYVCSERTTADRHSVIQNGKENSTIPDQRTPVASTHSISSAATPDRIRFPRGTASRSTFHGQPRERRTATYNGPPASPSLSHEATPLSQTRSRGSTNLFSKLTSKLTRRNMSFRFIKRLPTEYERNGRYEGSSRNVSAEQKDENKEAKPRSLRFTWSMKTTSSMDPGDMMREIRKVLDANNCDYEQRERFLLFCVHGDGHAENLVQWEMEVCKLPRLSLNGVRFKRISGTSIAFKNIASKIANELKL
Sequence of IGF1R (human) (P08069 whole entry, looked up): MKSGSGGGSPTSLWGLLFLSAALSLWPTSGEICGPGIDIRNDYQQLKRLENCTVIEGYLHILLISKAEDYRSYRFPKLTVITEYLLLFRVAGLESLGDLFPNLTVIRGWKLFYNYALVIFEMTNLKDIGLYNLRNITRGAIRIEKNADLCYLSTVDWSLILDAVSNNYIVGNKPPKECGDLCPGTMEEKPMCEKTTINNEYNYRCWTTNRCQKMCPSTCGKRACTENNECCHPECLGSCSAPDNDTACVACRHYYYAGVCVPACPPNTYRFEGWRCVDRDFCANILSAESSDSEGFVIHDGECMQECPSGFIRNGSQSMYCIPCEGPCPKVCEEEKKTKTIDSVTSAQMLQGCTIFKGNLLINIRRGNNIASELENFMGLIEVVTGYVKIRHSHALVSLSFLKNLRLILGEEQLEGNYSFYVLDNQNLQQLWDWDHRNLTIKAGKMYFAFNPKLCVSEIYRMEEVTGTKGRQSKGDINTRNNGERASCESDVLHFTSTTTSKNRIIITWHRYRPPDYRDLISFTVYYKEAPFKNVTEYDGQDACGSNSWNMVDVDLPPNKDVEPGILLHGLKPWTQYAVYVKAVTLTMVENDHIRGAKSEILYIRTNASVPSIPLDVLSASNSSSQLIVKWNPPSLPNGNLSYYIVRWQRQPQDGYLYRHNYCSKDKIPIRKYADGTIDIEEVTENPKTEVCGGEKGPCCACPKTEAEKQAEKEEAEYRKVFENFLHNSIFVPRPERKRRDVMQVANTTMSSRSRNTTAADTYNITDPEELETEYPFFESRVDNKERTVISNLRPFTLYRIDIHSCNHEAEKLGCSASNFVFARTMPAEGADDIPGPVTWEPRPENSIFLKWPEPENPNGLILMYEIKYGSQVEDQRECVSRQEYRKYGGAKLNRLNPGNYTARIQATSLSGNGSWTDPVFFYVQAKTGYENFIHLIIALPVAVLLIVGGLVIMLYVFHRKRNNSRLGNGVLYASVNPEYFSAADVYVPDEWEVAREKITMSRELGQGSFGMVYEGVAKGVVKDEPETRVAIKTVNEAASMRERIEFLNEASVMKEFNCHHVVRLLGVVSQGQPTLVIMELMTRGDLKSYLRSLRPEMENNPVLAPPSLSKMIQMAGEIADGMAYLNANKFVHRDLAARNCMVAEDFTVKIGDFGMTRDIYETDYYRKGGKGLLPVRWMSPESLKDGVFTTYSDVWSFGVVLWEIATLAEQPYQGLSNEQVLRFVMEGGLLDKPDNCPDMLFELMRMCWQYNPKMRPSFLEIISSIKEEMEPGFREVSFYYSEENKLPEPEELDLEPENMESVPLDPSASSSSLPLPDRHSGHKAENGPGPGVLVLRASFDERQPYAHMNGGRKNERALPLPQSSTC
Sequence of PIM2 (human) (Q9P1W9 whole entry, looked up): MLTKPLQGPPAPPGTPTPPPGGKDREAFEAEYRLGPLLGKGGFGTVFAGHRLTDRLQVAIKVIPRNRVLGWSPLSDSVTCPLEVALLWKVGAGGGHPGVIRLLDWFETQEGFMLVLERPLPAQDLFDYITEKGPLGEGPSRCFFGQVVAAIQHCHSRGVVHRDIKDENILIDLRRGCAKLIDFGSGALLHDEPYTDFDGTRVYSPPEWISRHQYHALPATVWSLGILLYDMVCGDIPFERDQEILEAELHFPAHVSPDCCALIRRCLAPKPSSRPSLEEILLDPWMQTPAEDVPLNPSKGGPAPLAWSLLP
Sequence of AKT2 (human), P31751 [S474D] (P31751 whole entry S474D, looked up): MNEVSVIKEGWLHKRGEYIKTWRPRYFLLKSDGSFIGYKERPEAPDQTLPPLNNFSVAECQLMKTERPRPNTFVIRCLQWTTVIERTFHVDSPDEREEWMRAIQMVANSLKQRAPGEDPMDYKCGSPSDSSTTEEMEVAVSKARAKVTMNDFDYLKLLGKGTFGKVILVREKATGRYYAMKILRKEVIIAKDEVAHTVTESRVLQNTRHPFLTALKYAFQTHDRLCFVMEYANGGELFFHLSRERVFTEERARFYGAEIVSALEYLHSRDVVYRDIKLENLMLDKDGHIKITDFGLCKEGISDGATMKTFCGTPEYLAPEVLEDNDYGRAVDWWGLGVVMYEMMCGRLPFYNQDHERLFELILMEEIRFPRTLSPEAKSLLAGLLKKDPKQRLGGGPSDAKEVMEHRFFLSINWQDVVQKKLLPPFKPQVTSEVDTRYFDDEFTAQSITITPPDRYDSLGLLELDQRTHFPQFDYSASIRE
Sequence of MAP2K1 (human) (Q02750 whole entry, looked up): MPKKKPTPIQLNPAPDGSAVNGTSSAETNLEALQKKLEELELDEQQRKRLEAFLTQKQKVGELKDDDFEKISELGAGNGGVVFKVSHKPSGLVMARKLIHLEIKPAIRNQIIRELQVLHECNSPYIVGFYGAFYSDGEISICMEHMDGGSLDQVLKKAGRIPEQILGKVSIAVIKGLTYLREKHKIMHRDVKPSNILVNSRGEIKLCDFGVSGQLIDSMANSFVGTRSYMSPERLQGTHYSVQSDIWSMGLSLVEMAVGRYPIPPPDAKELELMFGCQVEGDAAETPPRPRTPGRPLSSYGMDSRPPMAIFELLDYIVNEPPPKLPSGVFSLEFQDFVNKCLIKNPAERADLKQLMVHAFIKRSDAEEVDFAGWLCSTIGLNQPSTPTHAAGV
Sequence of PRKCZ (human) (Q05513 whole entry, looked up): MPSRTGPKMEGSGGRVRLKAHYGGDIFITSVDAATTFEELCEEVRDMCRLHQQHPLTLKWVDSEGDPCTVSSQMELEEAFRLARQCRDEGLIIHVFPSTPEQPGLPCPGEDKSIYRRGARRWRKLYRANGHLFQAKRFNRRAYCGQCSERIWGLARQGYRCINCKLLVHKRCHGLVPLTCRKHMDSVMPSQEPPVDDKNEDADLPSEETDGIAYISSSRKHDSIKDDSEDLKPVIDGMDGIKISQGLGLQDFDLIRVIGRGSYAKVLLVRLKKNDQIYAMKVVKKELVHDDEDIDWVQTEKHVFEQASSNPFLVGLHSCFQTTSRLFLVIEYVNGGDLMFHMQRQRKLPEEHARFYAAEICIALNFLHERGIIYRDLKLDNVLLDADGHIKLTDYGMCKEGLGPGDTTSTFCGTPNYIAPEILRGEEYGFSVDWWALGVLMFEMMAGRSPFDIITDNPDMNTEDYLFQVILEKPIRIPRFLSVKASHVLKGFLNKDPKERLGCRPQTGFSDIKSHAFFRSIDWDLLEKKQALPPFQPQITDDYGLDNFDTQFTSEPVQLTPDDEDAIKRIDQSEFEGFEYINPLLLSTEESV
Sequence of MAPK13 (human) (O15264 whole entry, looked up): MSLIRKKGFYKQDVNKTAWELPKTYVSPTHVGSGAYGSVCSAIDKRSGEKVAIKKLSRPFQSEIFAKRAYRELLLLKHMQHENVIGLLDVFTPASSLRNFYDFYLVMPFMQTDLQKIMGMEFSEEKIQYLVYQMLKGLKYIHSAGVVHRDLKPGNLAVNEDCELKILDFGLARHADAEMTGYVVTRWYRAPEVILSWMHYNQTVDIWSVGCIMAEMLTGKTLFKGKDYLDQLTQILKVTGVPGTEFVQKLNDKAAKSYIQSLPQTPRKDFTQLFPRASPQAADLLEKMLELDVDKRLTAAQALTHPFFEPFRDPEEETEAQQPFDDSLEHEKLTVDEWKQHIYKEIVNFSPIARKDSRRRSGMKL

- residual activity ([1]; compound 1.0 µM): 95%
- residual activity ([1]; compound 10.0 µM): 96%
- residual activity ([2]; compound 1.0 µM): 80%
- residual activity ([2]; compound 10.0 µM): 95%
- residual activity ([3]; compound 1.0 µM): 89%
- residual activity ([3]; compound 10.0 µM): 104%
- residual activity ([4]; compound 1.0 µM): 81%
- residual activity ([5]; compound 1.0 µM): 83%
- residual activity ([5]; compound 10.0 µM): 97%
- residual activity ([6]; compound 1.0 µM): 85%
- residual activity ([6]; compound 10.0 µM): 92%
- residual activity ([7]; compound 1.0 µM): 102%
- residual activity ([7]; compound 10.0 µM): 95%
- residual activity ([8]; compound 1.0 µM): 94%
- residual activity ([8]; compound 10.0 µM): 99%
- residual activity ([9]; compound 1.0 µM): 126%
- residual activity ([9]; compound 10.0 µM): 108%
- residual activity ([10]; compound 1.0 µM): 77%
- residual activity ([10]; compound 10.0 µM): 83%
- residual activity ([11]; compound 1.0 µM): 97%
- residual activity ([11]; compound 10.0 µM): 86%
- residual activity ([12]; compound 1.0 µM): 94%
- residual activity ([12]; compound 10.0 µM): 98%
- residual activity ([13]; compound 1.0 µM): 83%
- residual activity ([13]; compound 10.0 µM): 93%
- residual activity ([14]; compound 1.0 µM): 96%
- residual activity ([14]; compound 10.0 µM): 103%
- residual activity ([15]; compound 10.0 µM): 81%
- residual activity ([16]; compound 1.0 µM): 103%
- residual activity ([16]; compound 10.0 µM): 106%
- residual activity ([17]; compound 1.0 µM): 92%
- residual activity ([17]; compound 10.0 µM): 116%
- residual activity ([18]; compound 1.0 µM): 83%
- residual activity ([18]; compound 10.0 µM): 90%
- residual activity ([19]; compound 1.0 µM): 85%
- residual activity ([19]; compound 10.0 µM): 96%
- residual activity ([20]; compound 1.0 µM): 79%
- residual activity ([20]; compound 10.0 µM): 95%
- residual activity ([21]; compound 1.0 µM): -2%
- residual activity ([21]; compound 10.0 µM): 2%
- residual activity ([22]; compound 1.0 µM): 113%
- residual activity ([22]; compound 10.0 µM): 100%
- residual activity ([23]; compound 1.0 µM): 74%
- residual activity ([23]; compound 10.0 µM): 95%
- residual activity ([24]; compound 1.0 µM): 100%
- residual activity ([24]; compound 10.0 µM): 106%
- residual activity ([25]; compound 1.0 µM): 92%
- residual activity ([25]; compound 10.0 µM): 85%
- residual activity ([26]; compound 1.0 µM): 85%
- residual activity ([27]; compound 1.0 µM): 85%
- residual activity ([27]; compound 10.0 µM): 94%
Compound: O=C1NC(=S)N[C@@H]1Cc1c[nH]c2ccccc12

- residual activity ([1]; compound 0.1 µM): 100%
- residual activity ([1]; compound 1.0 µM): 96%
- residual activity ([1]; compound 10.0 µM): 104%
- residual activity ([2]; compound 0.1 µM): 84%
- residual activity ([2]; compound 1.0 µM): 83%
- residual activity ([2]; compound 10.0 µM): 34%
- residual activity ([3]; compound 0.1 µM): 106%
- residual activity ([3]; compound 10.0 µM): 78%
- residual activity ([4]; compound 0.1 µM): 132%
- residual activity ([4]; compound 1.0 µM): 139%
- residual activity ([4]; compound 10.0 µM): 101%
- residual activity ([5]; compound 0.1 µM): 74%
- residual activity ([5]; compound 1.0 µM): 73%
- residual activity ([5]; compound 10.0 µM): 60%
- residual activity ([6]; compound 0.1 µM): 99%
- residual activity ([6]; compound 1.0 µM): 94%
- residual activity ([6]; compound 10.0 µM): 85%
- residual activity ([7]; compound 0.1 µM): 100%
- residual activity ([7]; compound 1.0 µM): 88%
- residual activity ([7]; compound 10.0 µM): 46%
- residual activity ([8]; compound 0.1 µM): 103%
- residual activity ([8]; compound 10.0 µM): 92%
- residual activity ([9]; compound 0.1 µM): 87%
- residual activity ([9]; compound 1.0 µM): 77%
- residual activity ([9]; compound 10.0 µM): 46%
- residual activity ([10]; compound 0.1 µM): 78%
- residual activity ([10]; compound 1.0 µM): 75%
- residual activity ([10]; compound 10.0 µM): 70%
- residual activity ([11]; compound 0.1 µM): 90%
- residual activity ([11]; compound 1.0 µM): 90%
- residual activity ([11]; compound 10.0 µM): 100%
- residual activity ([12]; compound 0.1 µM): 89%
- residual activity ([12]; compound 1.0 µM): 82%
- residual activity ([12]; compound 10.0 µM): 91%
- residual activity ([13]; compound 0.1 µM): 96%
- residual activity ([13]; compound 1.0 µM): 92%
- residual activity ([13]; compound 10.0 µM): 83%
- residual activity ([14]; compound 0.1 µM): 108%
- residual activity ([14]; compound 1.0 µM): 95%
- residual activity ([14]; compound 10.0 µM): 96%
- residual activity ([15]; compound 0.1 µM): 90%
- residual activity ([15]; compound 1.0 µM): 83%
- residual activity ([15]; compound 10.0 µM): 83%
- residual activity ([16]; compound 0.1 µM): 93%
- residual activity ([16]; compound 1.0 µM): 88%
- residual activity ([16]; compound 10.0 µM): 88%
- residual activity ([17]; compound 0.1 µM): 121%
- residual activity ([17]; compound 1.0 µM): 100%
- residual activity ([17]; compound 10.0 µM): 91%
- residual activity ([18]; compound 0.1 µM): 88%
- residual activity ([18]; compound 1.0 µM): 96%
- residual activity ([18]; compound 10.0 µM): 77%
- residual activity ([19]; compound 0.1 µM): 98%
- residual activity ([19]; compound 1.0 µM): 84%
- residual activity ([19]; compound 10.0 µM): 76%
- residual activity ([20]; compound 0.1 µM): 99%
- residual activity ([20]; compound 1.0 µM): 98%
- residual activity ([20]; compound 10.0 µM): 80%
- residual activity ([21]; compound 0.1 µM): 117%
- residual activity ([21]; compound 1.0 µM): 104%
- residual activity ([21]; compound 10.0 µM): 96%
- residual activity ([22]; compound 0.1 µM): 72%
- residual activity ([22]; compound 1.0 µM): 95%
- residual activity ([22]; compound 10.0 µM): 82%
- residual activity ([23]; compound 0.1 µM): 91%
- residual activity ([23]; compound 1.0 µM): 92%
- residual activity ([23]; compound 10.0 µM): 88%
- residual activity ([24]; compound 0.1 µM): 89%
- residual activity ([24]; compound 1.0 µM): 87%
- residual activity ([24]; compound 10.0 µM): 49%
- residual activity ([25]; compound 0.1 µM): 94%
- residual activity ([25]; compound 1.0 µM): 83%
- residual activity ([25]; compound 10.0 µM): 82%
- residual activity ([26]; compound 0.1 µM): 101%
- residual activity ([26]; compound 1.0 µM): 91%
- residual activity ([26]; compound 10.0 µM): 79%
- residual activity ([27]; compound 1.0 µM): 101%
- residual activity ([27]; compound 10.0 µM): 88%
Compound: CCc1cncnc1N1CCN(Cc2nc3cc(C(F)(F)F)ccc3[nH]2)CC1

- residual activity ([1]; compound 1.0 µM): 109%
- residual activity ([1]; compound 10.0 µM): 96%
- residual activity ([2]; compound 1.0 µM): 110%
- residual activity ([2]; compound 10.0 µM): 86%
- residual activity ([3]; compound 1.0 µM): 95%
- residual activity ([3]; compound 10.0 µM): 62%
- residual activity ([4]; compound 10.0 µM): 115%
- residual activity ([5]; compound 1.0 µM): 103%
- residual activity ([5]; compound 10.0 µM): 103%
- residual activity ([6]; compound 1.0 µM): 87%
- residual activity ([6]; compound 10.0 µM): 59%
- residual activity ([7]; compound 1.0 µM): 94%
- residual activity ([7]; compound 10.0 µM): 91%
- residual activity ([8]; compound 1.0 µM): 87%
- residual activity ([8]; compound 10.0 µM): 70%
- residual activity ([9]; compound 1.0 µM): 104%
- residual activity ([9]; compound 10.0 µM): 83%
- residual activity ([10]; compound 1.0 µM): 79%
- residual activity ([10]; compound 10.0 µM): 74%
- residual activity ([11]; compound 1.0 µM): 99%
- residual activity ([11]; compound 10.0 µM): 106%
- residual activity ([12]; compound 1.0 µM): 102%
- residual activity ([12]; compound 10.0 µM): 105%
- residual activity ([13]; compound 1.0 µM): 84%
- residual activity ([13]; compound 10.0 µM): 79%
- residual activity ([14]; compound 1.0 µM): 107%
- residual activity ([14]; compound 10.0 µM): 103%
- residual activity ([15]; compound 1.0 µM): 102%
- residual activity ([15]; compound 10.0 µM): 120%
- residual activity ([16]; compound 1.0 µM): 87%
- residual activity ([16]; compound 10.0 µM): 66%
- residual activity ([17]; compound 1.0 µM): 103%
- residual activity ([17]; compound 10.0 µM): 85%
- residual activity ([18]; compound 1.0 µM): 81%
- residual activity ([18]; compound 10.0 µM): 95%
- residual activity ([19]; compound 1.0 µM): 98%
- residual activity ([19]; compound 10.0 µM): 102%
- residual activity ([20]; compound 1.0 µM): 86%
- residual activity ([20]; compound 10.0 µM): 83%
- residual activity ([21]; compound 1.0 µM): 105%
- residual activity ([21]; compound 10.0 µM): 90%
- residual activity ([22]; compound 1.0 µM): 87%
- residual activity ([23]; compound 1.0 µM): 106%
- residual activity ([23]; compound 10.0 µM): 98%
- residual activity ([24]; compound 1.0 µM): 110%
- residual activity ([24]; compound 10.0 µM): 100%
- residual activity ([25]; compound 1.0 µM): 93%
- residual activity ([25]; compound 10.0 µM): 91%
- residual activity ([26]; compound 1.0 µM): 89%
- residual activity ([26]; compound 10.0 µM): 79%
- residual activity ([27]; compound 1.0 µM): 87%
- residual activity ([27]; compound 10.0 µM): 81%
Compound: Cc1cc(SCc2sc(-c3ccc(C(F)(F)F)cc3)nc2C)ccc1OCC(=O)O
